The supplement of paper PMC10307832

Tests used:
Assay in all cases: relative viability (nuclei count vs DMSO), 5 days (fraction); higher = more cells survive
[1] = compound: C[C@@H](N)c1ccc(C(=O)Nc2ccnc3[nH]ccc23)cc1 + Cc1nc(Nc2ncc(C(=O)Nc3c(C)cccc3Cl)s2)cc(N2CCN(CCO)CC2)n1 [Dasatinib] (partner 0.075 µM)
Method in brief: (§1)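 Lung cancer cell lines were pin-tool dosed in 1536-well plates on the day after seeding, with either a lone drug or a fixed anchor-drug dose plus five library-drug doses (not always all listed) in √10 steps. Nuclei were counted on 4× images after 5 days. Relative viability is the ratio of treated-well to vehicle-well nuclei counts, with each value a median of duplicate plates.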

[2] = compound: O[C@H]1CC[C@H](Nc2ncc3nc(Nc4c(F)cc(F)cc4F)n([C@H]4CCOC4)c3n2)CC1 [Tanzisertib] + CC(=O)Nc1cccc(-n2c(=O)n(C3CC3)c(=O)c3c(Nc4ccc(I)cc4F)n(C)c(=O)c(C)c32)c1 [Trametinib] (partner 0.02 µM)
Method in brief: as §1

[3] = compound: O[C@H]1CC[C@H](Nc2ncc3nc(Nc4c(F)cc(F)cc4F)n([C@H]4CCOC4)c3n2)CC1 [Tanzisertib] + CC(C)C[C@H](NC(=O)[C@H](Cc1ccccc1)NC(=O)c1cnccn1)B(O)O [Bortezomib] (partner 0.002 µM)
Method in brief: as §1

[4] = compound: C1CNCCC1C2=CC(=NN2)C3=CC=NC=C3 + Nc1ncn([C@H]2C[C@H](O)[C@@H](CO)O2)c(=O)n1 [Decitabine] (partner 2 µM)
Method in brief: as §1

Cell Line	relative viability ([1]; first compound 0.04 µM)	relative viability ([1]; first compound 0.1265 µM)	relative viability ([1]; first compound 0.4 µM)	relative viability ([1]; first compound 4 µM)	relative viability ([2]; first compound 0.08 µM)	relative viability ([2]; first compound 0.253 µM)	relative viability ([2]; first compound 0.8 µM)	relative viability ([2]; first compound 2.53 µM)	relative viability ([2]; first compound 8 µM)	relative viability ([3]; first compound 0.08 µM)	relative viability ([3]; first compound 0.253 µM)	relative viability ([3]; first compound 0.8 µM)	relative viability ([3]; first compound 2.53 µM)	relative viability ([3]; first compound 8 µM)	relative viability ([4]; first compound 0.08 µM)	relative viability ([4]; first compound 0.8 µM)	relative viability ([4]; first compound 2.53 µM)	relative viability ([4]; first compound 8 µM)	relative viability ([1]; first compound 1.265 µM)
NCI-H2347	0.54	0.314	0.374	0.574	0.256	0.255	0.261	0.259	0.29	0.737	0.837	1.27	1.29	0.628	0.63	0.621	0.658	0.567	–
HCC-44	–	–	–	–	1.17	1.08	1.09	0.979	1.06	0.934	0.938	0.912	0.936	0.999	0.957	0.989	0.961	0.942	–
HCC-78	0.556	0.376	0.51	0.614	0.847	0.737	0.889	0.787	0.842	0.485	0.436	0.548	0.416	0.62	0.677	–	0.637	0.743	0.388
COR-L23	0.44	0.511	0.466	0.266	0.717	0.627	0.7	0.616	0.547	1.13	0.982	0.975	1.11	1.04	0.424	0.429	0.516	0.47	0.424
NCI-H1993	0.745	0.754	0.856	0.8	0.638	0.428	0.55	0.499	0.522	1.14	1.07	1.12	1.04	0.857	0.573	0.576	0.473	0.7	0.917
NCI-H2405	0.186	0.2	0.187	0.162	0.766	0.559	0.565	0.52	0.44	1.03	1.02	1.07	0.975	0.794	0.705	0.735	0.793	0.753	0.19
NCI-H2126	0.72	0.664	0.622	0.619	0.56	0.597	0.611	0.546	0.59	1.11	1.18	1.09	1.11	1.2	0.613	0.654	0.667	0.578	0.626
NCI-H1944	0.183	0.192	0.182	0.159	0.455	0.422	0.435	0.343	0.403	–	–	–	–	–	0.426	0.431	0.414	0.415	0.183
NCI-H2342	0.342	0.357	0.322	0.327	0.791	0.733	0.804	0.863	0.938	–	–	–	–	–	0.634	0.709	0.685	0.819	0.317
NCI-H358	0.173	0.193	0.169	0.18	0.141	0.134	0.151	0.155	0.133	–	–	–	–	–	0.224	0.226	0.21	0.217	0.165
ABC-1	0.577	0.552	0.648	0.445	–	–	–	–	–	0.292	0.346	0.268	0.356	0.228	1.23	1.02	1.32	1.08	0.507
NCI-H1563	0.49	0.462	0.486	0.465	–	–	–	–	–	0.957	0.859	0.917	0.829	0.945	–	–	–	–	0.377
NCI-H522	0.797	0.931	0.827	0.765	0.766	0.535	0.688	0.826	0.69	–	–	–	–	–	0.619	0.646	0.552	0.789	0.771
NCI-H1793	0.308	0.419	0.418	0.298	0.65	0.419	0.475	0.398	0.542	–	–	–	–	–	0.338	–	0.489	0.626	–
SW 900	0.722	0.549	0.606	0.488	–	0.868	0.857	0.552	0.737	–	–	–	–	–	0.418	–	0.424	0.475	0.44
CAL-12T	0.52	0.524	0.461	0.338	0.317	0.336	0.396	0.387	0.432	1.04	1.2	1.18	1.01	0.825	–	–	–	–	0.316
SK-MES-1	0.398	0.398	0.358	0.334	0.618	0.549	0.54	0.493	0.385	–	–	–	–	–	0.29	0.436	0.397	0.339	0.279
EBC-1	–	–	–	–	–	–	–	–	–	0.638	0.609	0.503	0.632	0.374	–	–	–	–	–
LK-2	0.375	–	0.339	0.424	0.916	0.76	0.816	0.694	0.866	–	–	–	–	–	–	0.237	0.404	0.358	–
IA-LM	–	–	–	–	–	–	–	–	–	0.925	0.803	0.777	0.867	0.977	–	–	–	–	–
NCI-H1703	–	–	–	–	–	–	–	–	–	0.328	0.326	0.293	0.377	0.248	–	–	–	–	–
NCI-H2228	0.677	0.505	0.546	0.436	0.581	0.34	0.806	0.362	0.259	1.11	0.948	1.08	0.801	0.721	–	–	–	–	0.482
NCI-H1395	0.416	0.431	0.368	0.399	1.03	0.932	0.989	0.991	1.05	–	–	–	–	–	0.705	0.714	0.751	0.755	0.394
